Laboratory results reported in US20260216346A1, “COMPOUND, NANOPARTICLES, MEDICINE, AND METHOD FOR PRODUCING NANOPARTICLES” (priority 2022, published 2026).
Entries after “also recorded” stand apart in the source; their conditions may differ.

Assays:
[1] = tested on: human breast cancer cell line MCF-7; assay: In vitro activity test: cell viability, Cell Counting Kit-8; format: cell-based; conditions: nanoparticle dispersion, 0.04 to 10 µM (in terms of SN-38), 48 hours, FIG. 2
Experimental: A human breast cancer cell line MCF-7 was suspended in Dulbecco's modified Eagle's medium (DMEM) to which 10% fetal bovine serum (FBS) was added, thereby preparing a cell suspension of 2×10^5 cells/mL. The above-described cell suspension was seeded on a 96-well plate at 100 μL per well. The next day, the aqueous dispersion liquid of the nanoparticles of compound (1-1), the aqueous dispersion liquid of the nanoparticles of compound (2-1), or the aqueous dispersion liquid of the nanoparticles of SN-38, prepared as described above, was added to the MCF-7 cell culture solution so that the concentration thereof was 0.04 to 10 µM (in terms of SN-38). Thereafter, the cells were cultured at 37° C. and 5% CO2 for 48 hours. Thereafter, cell viability was measured by a colorimetric method using Cell Counting Kit-8 (manufactured by DOJINDO LABORATORIES.) and a microplate reader.

[2] = Drug release test in PBS under reduced dithiothreitol treatment (1); format: physicochemical; conditions: nanoparticles 5 μM, PBS (-) pH 7.4 with 10 mM reduced DTT, 37° C., 1 hour or 24 hours, HPLC
Experimental: In the present test, the release of SN-38 from compound (1-1) and compound (2-1) in PBS to which reduced DTT was added was evaluated.
A solution was prepared by adding an aqueous dispersion liquid (5 μM, 500 μL) of nanoparticles of compound (1-1) or an aqueous dispersion liquid (5 μM, 500 μL) of nanoparticles of compound (2-1) to 500 µL of PBS (-) to which 10 mM of reduced dithiothreitol (DTT) had been added. “PBS (-)” used hereinafter is phosphate-buffered saline (pH: 7.4) containing NaCl (137 mM), KCl (2.7 mM), Na2HPO4 (10 mM), and KH2PO4 (1.76 mM).
The above-described reaction solution was incubated at 37° C. for 1 hour or 24 hours. 200 μL of the reaction solution after incubation was collected. The collected reaction solution was mixed with 800 μL of a 3% acetic acid solution of acetonitrile/methanol (1/1). The obtained mixed solution was analyzed by high-performance liquid chromatography (detection wavelength: 365 nm) as an analysis target sample.

[3] = Drug release test in PBS under reduced glutathione treatment; format: physicochemical; conditions: nanoparticles 50 μM, PBS(−)/EtOH (7/3) pH 7.4 with 10 mM reduced GSH, 37° C., 1, 6, 24 or 48 hours, HPLC
Experimental: In the present test, the release of SN-38 from compound (1-1) and compounds (2-1) to (2-3) in PBS to which the reduced GSH was added was evaluated.
A reaction solution was prepared by adding the aqueous dispersion liquid (50 μM, 500 μL) of the nanoparticles of compound (1-1) or the aqueous dispersion liquid (50 μM, 500 μL) of the nanoparticles of any one of compounds (2-1) to (2-3) to 500 μL of PBS(−)/EtOH (7/3) (pH: 7.4) to which 10 mM of reduced glutathione (GSH) had been added.
The above-described reaction solution was incubated at 37° C. for 1 hour, 6 hours, 24 hours, or 48 hours. 200 μL of the reaction solution was collected after the incubation. The collected reaction solution was mixed with 800 μL of a 3% acetic acid solution of acetonitrile/methanol (1/1). The obtained mixed solution was analyzed by high-performance liquid chromatography (detection wavelength: 365 nm) as an analysis target sample.

[4] = Particle diameter of nanoparticles by SEM and DLS; format: physicochemical; conditions: aqueous dispersion liquid, 0.05 mM
Experimental: 100 μL of a dimethyl sulfoxide solution of compound (1-1), prepared at 5 mM, was injected into 10 mL of water at room temperature using a syringe, and the mixture was stirred at 1,500 rpm for 2 seconds to obtain an aqueous dispersion liquid of nanoparticles. The final concentration of compound (1-1) in the aqueous dispersion liquid of the nanoparticles was 0.05 mM. It was confirmed by SEM and DLS that a particle diameter thereof was approximately 100 nm. […] A ClogP of compound (1-1) was 5.92.

## CCc1c2c(nc3ccc(OC(=O)C(C)(C)CCSSCCC(C)(C)C(=O)Oc4ccc5nc6c(c(CC)c5c4)Cn4c-6cc5c(c4=O)COC(=O)[C@]5(O)CC)cc13)-c1cc3c(c(=O)n1C2)COC(=O)[C@]3(O)CC [Compound (1-1)]
[1]
  cell viability of MCF-7: higher cell viability of MCF-7 compared with SN-38; also recorded: lower than that of compound (2-1)
[2]
  release of SN-38: SN-38 was released
[3]
  release of SN-38: compound (1-1) was reduced and SN-38 was increased with the passage of time
[4]
  particle diameter of nanoparticles: approximately 100 nm
